Converted amounts (≈) assume the structure as drawn. Where two headings read alike, the source gives them in different places.
Legend:
PBS Stability Assay = assay type: physicochemical; settings: phosphate buffered saline pH 7.4; for half-life at 2 μM: buffer, pH 7.4, 2 μM, read-out: PBS T½; for PBS T½: 2 μM
Summary of the method: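 Test compound at 2 μM final was incubated in PBS, pH 7.4, and sampled at 0, 10, 20, 30, 60 and 120 min into acetonitrile/1% formic acid quench with labetalol internal standard. Remaining compound was quantified by LC-MS peak-area ratio, and half-life came from a first-order exponential fit.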

HIV-1 IIIB strain = assay: MT-4 HIV Wild Type Virus Infection Assay (IIIB Virus); assay type: cell-based; settings: MT-4 cells acutely infected with HIV-1 IIIB, 5 day incubation, Cell-titer glo
Summary of the method: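 MT-4 cells at 2×10^6 cells/ml in RPMI/10% FBS were acutely infected with HIV-1 IIIB for 1 h at 37° C, diluted 25× and added to serially diluted compounds. After 5 days at 37° C, viability read by CellTiter-Glo luminescence; EC50 from dose-response curves.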

[1] = biological target: bovine intestinal alkaline phosphatase (Bos taurus (Bovine), UniProt P19111); assay: BiALP: conversion by bovine intestinal alkaline phosphatase; assay type: in vitro ADME; settings: 2 μM substrate, 100 ng/mL iALP, Tris pH 7.8, 37° C., 60 minutes; for [Intermediate A] or [Amprenavir]: parent formed
bovine intestinal alkaline phosphatase, sequence (P19111 20-506): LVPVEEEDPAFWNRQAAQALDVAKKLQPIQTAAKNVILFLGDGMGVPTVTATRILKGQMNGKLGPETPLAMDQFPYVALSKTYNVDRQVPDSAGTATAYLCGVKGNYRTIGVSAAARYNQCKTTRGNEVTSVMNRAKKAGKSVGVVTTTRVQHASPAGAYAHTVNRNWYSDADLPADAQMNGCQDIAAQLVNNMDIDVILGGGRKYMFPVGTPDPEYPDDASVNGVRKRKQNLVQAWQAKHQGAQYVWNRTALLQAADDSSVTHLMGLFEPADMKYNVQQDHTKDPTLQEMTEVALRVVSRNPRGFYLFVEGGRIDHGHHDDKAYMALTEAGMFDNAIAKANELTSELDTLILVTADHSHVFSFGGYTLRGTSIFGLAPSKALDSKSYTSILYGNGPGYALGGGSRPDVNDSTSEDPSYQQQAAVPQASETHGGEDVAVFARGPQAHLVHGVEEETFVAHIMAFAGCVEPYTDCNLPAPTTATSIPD
Summary of the method: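 Compounds at 2 μM final were incubated 60 min at 37° C in 0.1 M Tris-HCl pH 7.8 with 1 mM MgCl2 and 1 mM ZnCl2, with or without 100 ng/mL iALP (0.01 units/mL). Samples were quenched with acetonitrile/formic acid containing labetalol. Conversion was quantified by LC-MS peak area ratios against a 2 μM product standard.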

physchem = settings: 23 °C, pH 6.5, fassif, thermodynamic from solid
Summary of the method: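 Concentration measured by HPLC-UV after solid compound was dosed at 5 mg/mL into pH 6.5 fasted-state simulated intestinal fluid containing taurocholate and lecithin (4:1 molar) and vortexed.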

[2] = Human immunodeficiency virus 1, IIIB, MT4, 120 h

Compound | half-life at 2 μM (PBS Stability Assay) | EC50 (HIV-1 IIIB strain; Human immunodeficiency virus 1, IIIB, MT4, 120 h, read-out: EC50) | [Compound] [1] | solubility (physchem; FaSSIF (pH 6.5) solubility, FaSSIF pH 6.5, dose 5 mg/mL, 2-hour incubation, ambient temperature) | EC50 (HIV-1 IIIB strain; [2]) | solubility at 2 h (physchem) | PBS T½ (PBS Stability Assay) | EC50 (HIV-1 IIIB strain) | biALP Intermediate A or [Amprenavir] (% of total) [1] | [Intermediate A] or [Amprenavir] [1]
COC(=O)N[C@H](C(=O)N[C@@H](Cc1ccc(C#Cc2cnc(N3CC4CCC(C3)N4C3COC3)nc2)cc1)[C@H](CN(Cc1c(F)cc(-c2ccn(C(F)F)n2)cc1F)NC(=O)[C@@H](NC(=O)OC)C(C)(C)C(F)(F)F)OC(=O)OCOC(=O)CC(C)(C)c1c(OP(=O)(O)O)cc(C(=O)O)cc1C(=O)O)C(C)(C)C(F)(F)F [Example 1] | 8.74 h | 7.6 nM | 1318.1 nM | 5060 µg/mL (≈ 3220 µM) | – | – | – | – | – | –
COC(=O)N[C@H](C(=O)N[C@@H](Cc1ccc(C#Cc2cnc(N3CC4CCC(C3)N4C3COC3)nc2)cc1)[C@H](CN(Cc1c(F)cc(-c2ccn(C(F)F)n2)cc1F)NC(=O)[C@@H](NC(=O)OC)C(C)(C)C(F)(F)F)OC(=O)CC(C)(C)c1c(CC(=O)N(C)CCC(=O)O)cc(C)cc1OP(=O)(O)O)C(C)(C)C(F)(F)F [Example 94] | 3.72 h | – | 1912 nM | – | 59 nM | 1580 µg/mL (≈ 1010 µM) | – | – | – | –
COC(=O)N[C@H](C(=O)N[C@@H](Cc1ccc(C#Cc2cnc(N3CC4CCC(C3)N4C3COC3)nc2)cc1)[C@H](CN(Cc1c(F)cc(-c2ccn(C(F)F)n2)cc1F)NC(=O)[C@@H](NC(=O)OC)C(C)(C)C(F)(F)F)OC(=O)CC(C)(C)c1c(CC(=O)N[C@@H](Cc2c[nH]c3ccccc23)C(=O)O)cc(C)cc1OP(=O)(O)O)C(C)(C)C(F)(F)F [Example 48] | 4.76 h | – | 2071.6 nM | – | 201 nM | 910 µg/mL (≈ 545 µM) | – | – | – | –
COC(=O)N[C@H](C(=O)N[C@@H](Cc1ccc(C#Cc2cnc(N3CC4CCC(C3)N4C3COC3)nc2)cc1)[C@H](CN(Cc1c(F)cc(-c2ccn(C(F)F)n2)cc1F)NC(=O)[C@@H](NC(=O)OC)C(C)(C)C(F)(F)F)OC(=O)CC(C)(C)c1c(CC(=O)NC(CC(=O)O)CC(=O)O)cc(C)cc1OP(=O)(O)O)C(C)(C)C(F)(F)F [Example 43] | 4.82 h | – | 1661.5 nM | – | 85.9 nM | 1920 µg/mL (≈ 1190 µM) | – | – | – | –
COC(=O)N[C@H](C(=O)N[C@@H](Cc1ccc(C#Cc2cnc(N3CC4CCC(C3)N4C3COC3)nc2)cc1)[C@H](CN(Cc1c(F)cc(-c2ccn(C(F)F)n2)cc1F)NC(=O)[C@@H](NC(=O)OC)C(C)(C)C(F)(F)F)OC(=O)CC(C)(C)c1c(CC(=O)NC(CCCC(=O)O)C(=O)O)cc(C)cc1OP(=O)(O)O)C(C)(C)C(F)(F)F (stereo partly shown) [Example 42] | – | – | 1335 nM | – | – | 4020 µg/mL (≈ 2470 µM) | 6.025 h | 49.1 nM | – | –
CC[C@H](C)[C@H](NC(=O)Cc1cc(C)cc(OP(=O)(O)O)c1C(C)(C)CC(=O)O[C@@H](CN(Cc1c(F)cc(-c2ccn(C(F)F)n2)cc1F)NC(=O)[C@@H](NC(=O)OC)C(C)(C)C(F)(F)F)[C@H](Cc1ccc(C#Cc2cnc(N3CC4CCC(C3)N4C3COC3)nc2)cc1)NC(=O)[C@@H](NC(=O)OC)C(C)(C)C(F)(F)F)C(=O)O [Example 96] | 4.33 h | – | 2114.6 nM | – | 559 nM | 1840 µg/mL (≈ 1150 µM) | – | – | – | –
COC(=O)N[C@H](C(=O)N[C@@H](Cc1ccc(C#Cc2cnc(N3CC4CCC(C3)N4C3COC3)nc2)cc1)[C@H](CN(Cc1c(F)cc(-c2ccn(C(F)F)n2)cc1F)NC(=O)[C@@H](NC(=O)OC)C(C)(C)C(F)(F)F)OC(=O)CC(C)(C)c1c(CC(=O)N2CC(C(=O)O)CC(C(=O)O)C2)cc(C)cc1OP(=O)(O)O)C(C)(C)C(F)(F)F (stereo partly shown) [Example 67] | 4.32 h | – | 1747.2 nM | – | 205 nM | 3160 µg/mL (≈ 1930 µM) | – | – | 9.1 % of total | 175.4 nM
COC(=O)N[C@H](C(=O)N[C@@H](Cc1ccc(C#Cc2cnc(N3CC4CCC(C3)N4C3COC3)nc2)cc1)[C@H](CN(Cc1c(F)cc(-c2ccn(C(F)F)n2)cc1F)NC(=O)[C@@H](NC(=O)OC)C(C)(C)C(F)(F)F)OC(=O)OCOC(=O)CC(C)(C)c1c(CC(=O)N2CCN(S(=O)(=O)N(C)C)CC2)cc(C)cc1OP(=O)(O)O)C(C)(C)C(F)(F)F [Example 86] | 2.59 h | – | 1890 nM | – | 4.1 nM | < 1000 µg/mL | – | – | 5.6 % of total | 112.9 nM
COC(=O)N[C@H](C(=O)N[C@@H](Cc1ccc(C#Cc2cnc(N3CC4CCC(C3)N4C3COC3)nc2)cc1)[C@H](CN(Cc1c(F)cc(-c2ccn(C(F)F)n2)cc1F)NC(=O)[C@@H](NC(=O)OC)C(C)(C)C(F)(F)F)OC(=O)CC(C)(C)c1c(CC(=O)N[C@@H](CCC(N)=O)C(=O)O)cc(C)cc1OP(=O)(O)O)C(C)(C)C(F)(F)F [Example 88] | 6.16 h | – | 1726.6 nM | – | 42.8 nM | 4640 µg/mL (≈ 2880 µM) | – | – | 6 % of total | 109.8 nM
COC(=O)N[C@H](C(=O)N[C@@H](Cc1ccc(C#Cc2cnc(N3CC4CCC(C3)N4C3COC3)nc2)cc1)[C@H](CN(Cc1c(F)cc(-c2ccn(C(F)F)n2)cc1F)NC(=O)[C@@H](NC(=O)OC)C(C)(C)C(F)(F)F)OC(=O)OCOC(=O)CC(C)(C)c1c(CC(=O)NCCS(=O)(=O)O)cc(C)cc1OP(=O)(O)O)C(C)(C)C(F)(F)F [Example 21] | – | – | 1281.9 nM | – | 3.6 nM | 4340 µg/mL (≈ 2610 µM) | 13.2 h | – | 44.7 % of total | 1034.6 nM
COC(=O)N[C@H](C(=O)N[C@@H](Cc1ccc(C#Cc2cnc(N3CC4CCC(C3)N4C3COC3)nc2)cc1)[C@H](CN(Cc1c(F)cc(-c2ccn(C(F)F)n2)cc1F)NC(=O)[C@@H](NC(=O)OC)C(C)(C)C(F)(F)F)OC(=O)CC(C)(C)c1c(CC(=O)N[C@@H](CC(C)C)C(=O)O)cc(C)cc1OP(=O)(O)O)C(C)(C)C(F)(F)F [Example 99] | 7.45 h | – | 1928.8 nM | – | 373 nM | 1880 µg/mL (≈ 1180 µM) | – | – | – | –
COC(=O)N[C@H](C(=O)N[C@@H](Cc1ccc(C#Cc2cnc(N3CC4CCC(C3)N4C3COC3)nc2)cc1)[C@H](CN(Cc1c(F)cc(-c2ccn(C(F)F)n2)cc1F)NC(=O)[C@@H](NC(=O)OC)C(C)(C)C(F)(F)F)OC(=O)OCOC(=O)CC(C)(C)c1c(CC(=O)NCP(=O)(O)O)cc(C)cc1OP(=O)(O)O)C(C)(C)C(F)(F)F [Example 69] | 13.1 h | – | 1578.5 nM | – | 3.5 nM | 4950 µg/mL (≈ 3000 µM) | – | – | – | –
COC(=O)N[C@H](C(=O)N[C@@H](Cc1ccc(C#Cc2cnc(N3CC4CCC(C3)N4C3COC3)nc2)cc1)[C@H](CN(Cc1c(F)cc(-c2ccn(C(F)F)n2)cc1F)NC(=O)[C@@H](NC(=O)OC)C(C)(C)C(F)(F)F)OC(=O)CC(C)(C)c1c(CC(=O)N(C)CC(=O)O)cc(C)cc1OP(=O)(O)O)C(C)(C)C(F)(F)F [Example 95] | 4.22 h | – | 1927.5 nM | – | 99.1 nM | 4260 µg/mL (≈ 2740 µM) | – | – | – | –
COC(=O)N[C@H](C(=O)N[C@@H](Cc1ccc(C#Cc2cnc(N3CC4CCC(C3)N4C3COC3)nc2)cc1)[C@H](CN(Cc1c(F)cc(-c2ccn(C(F)F)n2)cc1F)NC(=O)[C@@H](NC(=O)OC)C(C)(C)C(F)(F)F)OC(=O)CC(C)(C)c1c(CC(=O)N[C@@H](CC(N)=O)C(=O)O)cc(C)cc1OP(=O)(O)O)C(C)(C)C(F)(F)F [Example 89] | 5.29 h | – | 1704.6 nM | – | 115 nM | 2390 µg/mL (≈ 1500 µM) | – | – | – | –
COC(=O)N[C@H](C(=O)N[C@@H](Cc1ccc(C#Cc2cnc(N3CC4CCC(C3)N4C3COC3)nc2)cc1)[C@H](CN(Cc1c(F)cc(-c2ccn(C(F)F)n2)cc1F)NC(=O)[C@@H](NC(=O)OC)C(C)(C)C(F)(F)F)OC(=O)CC(C)(C)c1c(CC(=O)N(CCCC(=O)O)CCC(=O)O)cc(C)cc1OP(=O)(O)O)C(C)(C)C(F)(F)F [Example 36] | 10.9 h | – | 1383.3 nM | – | 97.4 nM | 4260 µg/mL (≈ 2590 µM) | – | – | – | –
COC(=O)N[C@H](C(=O)N[C@@H](Cc1ccc(C#Cc2cnc(N3CC4CCC(C3)N4C3COC3)nc2)cc1)[C@H](CN(Cc1c(F)cc(-c2ccn(C(F)F)n2)cc1F)NC(=O)[C@@H](NC(=O)OC)C(C)(C)C(F)(F)F)OC(=O)CC(C)(C)c1c(CC(=O)N(CCC(=O)O)[C@@H](CCC(=O)O)C(=O)O)cc(C)cc1OP(=O)(O)O)C(C)(C)C(F)(F)F [Example 44] | 4.67 h | – | 1835.9 nM | – | 528 nM | 4550 µg/mL (≈ 2700 µM) | – | – | – | –
COC(=O)N[C@H](C(=O)N[C@@H](Cc1ccc(C#Cc2cnc(N3CC4CCC(C3)N4C3COC3)nc2)cc1)[C@H](CN(Cc1c(F)cc(-c2ccn(C(F)F)n2)cc1F)NC(=O)[C@@H](NC(=O)OC)C(C)(C)C(F)(F)F)OC(=O)CC(C)(C)c1c(CC(=O)N[C@@H](C)C(=O)O)cc(C)cc1OP(=O)(O)O)C(C)(C)C(F)(F)F [Example 98] | 6.47 h | – | 1320.1 nM | – | 64.6 nM | 4280 µg/mL (≈ 2750 µM) | – | – | – | –

From patent US20250051375A1, “ANTI-HIV COMPOUNDS” (Gilead Sciences, Inc., priority 2023, published 2025)
